{
  "source": "patent US20220110315A1",
  "about": "“SOLUTIONS AND METHODS FOR ORGAN PRESERVATION” (priority 2019, published 2022)",
  "system": "isolated perfused rat hearts",
  "test": "Isolated perfused rat heart (modified Langendorff) global ischemia/reperfusion injury",
  "settings": "5 μM for 5 min prior to 30 min global ischemia and for first 5 min of 45 min reperfusion; compared to untreated control I/R hearts; n=7",
  "data": [
    {"smiles": "Oc1ccc2c3c1O[C@H]1c4[nH]c5ccccc5c4C[C@@]4(O)[C@@H](C2)N(CC2CC2)CC[C@]314", "note": "[naltrindole]", "values": [
      {"measurement": "infarct size (TTC staining at end of reperfusion)", "result": "reduced infarct size"},
      {"measurement": "post-reperfused cardiac function (+dP/dtmax, -dP/dtmin, LVDP, LVEDP)", "result": "significantly restored"}
    ]}
  ]
}
